# Publication PMC8449414, “Rational design of ASCT2 inhibitors using an integrated experimental-computational approach” (Proceedings of the National Academy of Sciences of the …, 2021)
# Several values for one entry are separate records, joined by “and”; a condition that tells them apart may be missing. Equal entries are not always repeated.
# Key:
# hASCT2 = target: T1, hASCT2 (Homo sapiens, UniProt Q15758); test: Electrophysiology: inhibition of leak anion current in transfected HEK293 cells; assay type: cell-based; conditions: for activity (in words, structure activity relationship): ASCT2, species not given; for Binding affinity Ki (apparent Ki) / Ki: HEK293 cells, 0 mV, 130 mM NaSCN internal, 140 mM NaCl external, No current = no inhibition of anion leak current up to highest concentration tested (§ 20-50, || 100-400, # 1500-2500 µM); for Ki: read-out: Binding affinity Ki (apparent Ki); for selectivity for hASCT2 over rEAAT1: ratio of Ki, hASCT2 versus rEAAT1
# T1 construct: expressed in transfected cells; host or cells: HEK293 (ATCC CRL-11268), transient transfection
# T1 sequence (Q15758 1-541): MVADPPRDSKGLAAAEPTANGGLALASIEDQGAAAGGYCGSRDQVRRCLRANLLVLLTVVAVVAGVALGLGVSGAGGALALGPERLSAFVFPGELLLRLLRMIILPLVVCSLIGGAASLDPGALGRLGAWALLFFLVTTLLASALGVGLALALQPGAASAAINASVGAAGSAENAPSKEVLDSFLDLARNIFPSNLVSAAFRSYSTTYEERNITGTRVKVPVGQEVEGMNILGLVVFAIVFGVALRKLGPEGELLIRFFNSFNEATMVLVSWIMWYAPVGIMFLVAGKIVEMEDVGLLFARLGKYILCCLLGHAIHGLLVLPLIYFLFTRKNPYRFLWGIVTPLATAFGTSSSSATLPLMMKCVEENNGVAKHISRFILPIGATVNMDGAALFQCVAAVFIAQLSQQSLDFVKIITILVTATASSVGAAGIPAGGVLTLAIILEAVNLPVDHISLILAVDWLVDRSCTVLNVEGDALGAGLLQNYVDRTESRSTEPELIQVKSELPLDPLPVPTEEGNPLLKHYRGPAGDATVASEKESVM
# Protocol: (§1) Cell culture and transfection
# (§2) Human embryonic kidney 293 (HEK293, ATCC CRL -11268) cells were cultured in DMEM media supplemented with 10% (v/v) fetal bovine serum (FBS), 2 mM glutamine, 1% penicillin streptomycin solution, 1 mM sodium pyruvate and non -essential amino acids. Cells were maintained at 370C in a fully humidified atmosphere containing 5% CO2. rASCT2, hASCT2, hASCT1, EAAT1, EAAT2, EAAT3, EAAT5 and YFP complementary DNAs were each used to transiently transfect HEK293 using POLYPLUS Jet-prime transfection reagent. Cells were analyzed using electrophysiological techniques 24-40 hours after transfection.
# (§3) Electrophysiological techniques
# (§4) Electrophysiological experiments were performed as described previously 1,2. Stock solutions of inhibitor was prepared in dimethyl sulfoxide (DMSO) up to 100 mM.
# (§5) Dilutions to working concentrations were made using external buffer. The highest
# rASCT2 = target: T2, rASCT2 (Rattus norvegicus, UniProt D3ZJ25); test: as above; assay type: cell-based; conditions: HEK293 cells, 0 mV, 130 mM NaSCN internal, 140 mM NaCl external, No current = no inhibition of anion leak current up to highest concentration tested (§ 20-50, || 100-400, # 1500-2500 µM); for Ki: read-out: Binding affinity Ki (apparent Ki)
# T2 construct: expressed in transfected cells; host or cells: HEK293 (ATCC CRL-11268), transient transfection
# T2 sequence (D3ZJ25 1-555): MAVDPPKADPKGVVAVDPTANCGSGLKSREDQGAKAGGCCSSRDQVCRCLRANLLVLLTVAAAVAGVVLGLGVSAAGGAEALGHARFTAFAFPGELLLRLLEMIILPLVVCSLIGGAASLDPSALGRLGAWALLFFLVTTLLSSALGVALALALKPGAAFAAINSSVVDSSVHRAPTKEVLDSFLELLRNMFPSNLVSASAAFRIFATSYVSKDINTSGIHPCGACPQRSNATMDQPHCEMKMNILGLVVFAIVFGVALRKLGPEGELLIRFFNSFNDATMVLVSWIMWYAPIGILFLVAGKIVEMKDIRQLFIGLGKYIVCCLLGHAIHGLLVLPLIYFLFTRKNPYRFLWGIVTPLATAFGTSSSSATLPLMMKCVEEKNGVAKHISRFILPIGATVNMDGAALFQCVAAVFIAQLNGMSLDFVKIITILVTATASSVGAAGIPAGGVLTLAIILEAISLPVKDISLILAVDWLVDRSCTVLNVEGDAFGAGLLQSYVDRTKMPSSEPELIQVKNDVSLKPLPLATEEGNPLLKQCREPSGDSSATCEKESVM
# Protocol: as §1, §2, §3, §4, §5
Compound,Binding affinity Ki (apparent Ki) (hASCT2),Ki (hASCT2),Ki (rASCT2),selectivity for hASCT2 over rEAAT1 (hASCT2),"activity (in words, structure activity relationship) (hASCT2)",Binding affinity Ki (apparent Ki) (rASCT2)
O=C(O[C@@H]1CN[C@H](C(=O)O)C1)C(c1ccccc1)c1ccccc1 [ERA-29],No current,,,,no activity,No current
N[C@@H](COC(=O)c1cccnc1)C(=O)O [ERA-28],,690 ± 54.2 µM,266 ± 42.7 µM,,,
"O=C(O[C@@H]1CN[C@H](C(=O)O)C1)c1ccc(-c2ccccc2)cc1 [Lc-BPE, L-cis hydroxyproline biphenyl ester]",,0.86 ± 0.11 µM,0.74 ± 0.11 µM,,,
O=C(O[C@H]1CN[C@H](C(=O)O)C1)c1ccc(C(=O)c2ccccc2)cc1 [ERA-35],,> 500 µM,121 ± 29.9 µM,,,
O=C(O[C@@H]1CN[C@H](C(=O)O)C1)c1ccc(-c2ccc(F)cc2)cc1 [ERA-4],,0.74 ± 0.09 µM,0.65 ± 0.04 µM,,,
N[C@@H](COC(=O)c1ccccc1)C(=O)O [ERA-25],,186 ± 17.2 µM,290 ± 16.5 µM,,,
O=C(O[C@@H]1CN[C@H](C(=O)O)C1)c1ccccc1-c1ccccc1 [ERA-3],No current,,,,inactive,No current

# Further compounds by falling Ki (rASCT2), results first:
Binding affinity Ki (apparent Ki) (hASCT2),Ki (hASCT2),Ki (rASCT2),selectivity for hASCT2 over rEAAT1 (hASCT2),Compound,"activity (in words, structure activity relationship) (hASCT2)",Binding affinity Ki (apparent Ki) (rASCT2)
,5.65 µM and 5.7 µM,18.8 ± 4.97 µM,sevenfold,O=C(O[C@@H]1CN[C@H](C(=O)O)C1)c1ccc(C(O)c2ccccc2)cc1 (some centres unmarked) [ERA-9],,
No current,,8.17 ± 1.05 µM,,O=C(O[C@@H]1CN[C@H](C(=O)O)C1)c1ccc(OCc2ccccc2)cc1 [ERA-31],,
,22.6 ± 3.66 µM,4.33 ± 1.3 µM,,N[C@@H](COC(=O)c1ccc(NC(=O)c2ccccc2)cc1)C(=O)O [ERA-21],,
,4.17 ± 0.46 µM,3.68 ± 0.73 µM,,O=C(O[C@@H]1CN[C@H](C(=O)O)C1)c1ccc(Oc2ccccc2)cc1 [ERA-16],,
,2.94 ± 0.93 µM,3.37 ± 0.41 µM,threefold,O=C(Nc1ccc(C(=O)O[C@@H]2CN[C@H](C(=O)O)C2)cc1)c1ccc(C(F)(F)F)cc1 [ERA-11],,
,1.12 ± 0.11 µM,0.97 ± 0.08 µM,,Cc1ccccc1-c1ccc(C(=O)O[C@@H]2CN[C@H](C(=O)O)C2)cc1 [ERA-6],,
,1.05 ± 0.21 µM,0.27 ± 0.05 µM,,O=C(O[C@@H]1CN[C@H](C(=O)O)C1)c1ccc(-c2ccc(C(F)(F)F)cc2)cc1 [ERA-5],,
